According to the CheMixHub viscosity set:
± gives the uncertainty stated by the source.

Test: xn = mol fraction of the nth substance listed

CCC(=O)CC + ClC=C(Cl)Cl
viscosity [mPa·s], 101.33 kPa
Conditions | x2 = 0.1126 | x2 = 0.2042 | x2 = 0.2941 | x2 = 0.4591 | x2 = 0.5988 | x2 = 0.6807 | x2 = 0.7837 | x2 = 0.8997
298.15 K | 0.439 ± 0.006 | 0.463 ± 0.006 | 0.489 ± 0.006 | 0.532 ± 0.007 | 0.57 ± 0.007 | 0.582 ± 0.007 | 0.598 ± 0.008 | 0.614 ± 0.008
308.15 K | 0.402 ± 0.005 | 0.426 ± 0.006 | 0.449 ± 0.006 | 0.491 ± 0.006 | 0.523 ± 0.007 | 0.539 ± 0.007 | 0.558 ± 0.007 | 0.574 ± 0.007
318.15 K | 0.379 ± 0.005 | 0.401 ± 0.005 | 0.422 ± 0.006 | 0.462 ± 0.006 | 0.494 ± 0.006 | 0.508 ± 0.007 | 0.525 ± 0.007 | 0.544 ± 0.007

CCCC[n+]1ccn(C)c1.C[C@H](N)C(=O)[O-] + OCc1ccccc1
101 kPa
Conditions | viscosity [mPa·s]
298.15 K, x1 = 0.4864 | 18.75 ± 1.2
313.15 K, x1 = 0.6945 | 18.65 ± 1.2

CCC(=O)CC + CCCCN(CCCC)CCCC
viscosity [mPa·s], 101 kPa
Conditions | 298.15 K | 303.15 K | 308.15 K
x2 = 0.05 | 0.468 ± 0.016 | 0.442 ± 0.016 | 0.419 ± 0.016
x2 = 0.1004 | 0.498 ± 0.017 | 0.47 ± 0.016 | 0.444 ± 0.016
x2 = 0.1502 | 0.533 ± 0.017 | 0.502 ± 0.017 | 0.473 ± 0.016
x2 = 0.2006 | 0.566 ± 0.017 | 0.531 ± 0.017 | 0.502 ± 0.017
x2 = 0.25 | 0.6 ± 0.017 | 0.563 ± 0.017 | 0.529 ± 0.017
x2 = 0.2996 | 0.636 ± 0.017 | 0.595 ± 0.017 | 0.559 ± 0.017
x2 = 0.3995 | 0.71 ± 0.017 | 0.662 ± 0.017 | 0.621 ± 0.017
x2 = 0.4998 | 0.79 ± 0.017 | 0.734 ± 0.017 | 0.684 ± 0.017
x2 = 0.6004 | 0.874 ± 0.017 | 0.809 ± 0.017 | 0.752 ± 0.017
x2 = 0.7005 | 0.965 ± 0.018 | 0.889 ± 0.017 | 0.824 ± 0.017
x2 = 0.7998 | 1.065 ± 0.018 | 0.978 ± 0.018 | 0.901 ± 0.017
x2 = 0.8462 | 1.109 ± 0.018 | 1.016 ± 0.018 | 0.934 ± 0.018
x2 = 0.8953 | 1.16 ± 0.018 | 1.06 ± 0.018 | 0.976 ± 0.018
x2 = 0.9489 | 1.212 ± 0.018 | 1.106 ± 0.018 | 1.017 ± 0.018

CN1CCCC1=O + CC(C)O
298.15 K, 101 kPa
Conditions | viscosity [mPa·s]
x1 = 0.0609 | 1.8 ± 0.018
x1 = 0.1034 | 1.703 ± 0.017
x1 = 0.1399 | 1.641 ± 0.016
x1 = 0.1993 | 1.57 ± 0.015
x1 = 0.2332 | 1.539 ± 0.015
x1 = 0.3074 | 1.5 ± 0.015
x1 = 0.3626 | 1.454 ± 0.014
x1 = 0.4127 | 1.45 ± 0.014
x1 = 0.4612 | 1.481 ± 0.015
x1 = 0.5022 | 1.488 ± 0.015
x1 = 0.5599 | 1.497 ± 0.015
x1 = 0.6107 | 1.511 ± 0.015
x1 = 0.6683 | 1.53 ± 0.015
x1 = 0.7081 | 1.543 ± 0.015
x1 = 0.7567 | 1.561 ± 0.015
x1 = 0.794 | 1.579 ± 0.015
x1 = 0.8562 | 1.608 ± 0.016
x1 = 0.9199 | 1.633 ± 0.016

OCc1ccccc1 + O=[N+]([O-])c1ccccc1
303.15 K, 101 kPa
Conditions | viscosity [mPa·s]
x1 = 0.1725 | 1.292 ± 0.012
x1 = 0.2352 | 1.292 ± 0.012
x1 = 0.3083 | 1.389 ± 0.013
x1 = 0.4517 | 1.657 ± 0.015
x1 = 0.5919 | 2.015 ± 0.018
x1 = 0.6592 | 2.234 ± 0.02
x1 = 0.7706 | 2.658 ± 0.024
x1 = 0.8314 | 2.956 ± 0.026
x1 = 0.9106 | 3.486 ± 0.03

C1CCCC1 + CCC(C)(C)O
viscosity [mPa·s], 101 kPa
Conditions | 298.15 K | 308.15 K
x1 = 0.0429 | 2.979 ± 0.14 | 1.779 ± 0.086
x1 = 0.067 | 2.668 ± 0.12 | 1.62 ± 0.079
x1 = 0.1245 | 2.256 ± 0.1 | 1.413 ± 0.069
x1 = 0.2079 | 1.793 ± 0.084 | 1.151 ± 0.057
x1 = 0.3116 | 1.297 ± 0.063 | 0.9115 ± 0.046
x1 = 0.3957 | 1.073 ± 0.053 | 0.7831 ± 0.04
x1 = 0.5173 | 0.8412 ± 0.043 | 0.6798 ± 0.036
x1 = 0.5982 | 0.7558 ± 0.039 | 0.5719 ± 0.031
x1 = 0.683 | 0.6454 ± 0.034 | 0.5099 ± 0.028
x1 = 0.8095 | 0.508 ± 0.028 | 0.4267 ± 0.025
x1 = 0.8844 | 0.4827 ± 0.027 | 0.4072 ± 0.024
x1 = 0.9127 | 0.4379 ± 0.025 | 0.3726 ± 0.023
x1 = 0.944 | 0.4169 ± 0.024 | 0.3547 ± 0.022

C1CCCC1 + CC(C)=O
viscosity [mPa·s], 101.33 kPa
Conditions | 293.15 K | 298.15 K | 303.15 K
x1 = 0.0453 | 0.318 ± 0.006 | 0.308 ± 0.006 | 0.29 ± 0.006
x1 = 0.0935 | 0.319 ± 0.006 | 0.304 ± 0.006 | 0.291 ± 0.006
x1 = 0.1869 | 0.319 ± 0.007 | 0.304 ± 0.006 | 0.289 ± 0.006
x1 = 0.2786 | 0.324 ± 0.007 | 0.309 ± 0.006 | 0.294 ± 0.006
x1 = 0.3922 | 0.333 ± 0.007 | 0.318 ± 0.007 | 0.303 ± 0.006
x1 = 0.517 | 0.344 ± 0.007 | 0.327 ± 0.007 | 0.311 ± 0.006
x1 = 0.6026 | 0.357 ± 0.007 | 0.338 ± 0.007 | 0.321 ± 0.007
x1 = 0.6876 | 0.367 ± 0.007 | 0.347 ± 0.007 | 0.332 ± 0.007
x1 = 0.795 | 0.385 ± 0.008 | 0.365 ± 0.007 | 0.347 ± 0.007
x1 = 0.9016 | 0.408 ± 0.008 | 0.39 ± 0.008 | 0.37 ± 0.007
x1 = 0.9511 | 0.419 ± 0.008 | 0.397 ± 0.008 | 0.377 ± 0.008

CC(=O)OC(C)=O + Oc1ccccc1
viscosity [mPa·s], 101.33 kPa
Conditions | 298.15 K | 323.15 K
x2 = 0.0899 | 0.922 ± 0.0092 | 0.666 ± 0.0067
x2 = 0.1347 | 0.98 ± 0.0098 | 0.706 ± 0.0071
x2 = 0.1492 | 1.014 ± 0.01 | 0.733 ± 0.0073
x2 = 0.2953 | 1.267 ± 0.013 | 0.896 ± 0.009
x2 = 0.3588 | 1.412 ± 0.014 | 0.951 ± 0.0095
x2 = 0.4184 | 1.559 ± 0.016 | 1.05 ± 0.01
x2 = 0.4673 | 1.706 ± 0.017 | 1.1 ± 0.011
x2 = 0.4678 | 1.707 ± 0.017 | 1.1 ± 0.011
x2 = 0.5 | 1.839 ± 0.018 | 1.164 ± 0.012
x2 = 0.5169 | 1.89 ± 0.019 | 1.191 ± 0.012
x2 = 0.5846 | 2.069 ± 0.021 | 1.275 ± 0.013
x2 = 0.6414 | 2.668 ± 0.027 | 1.513 ± 0.015
x2 = 0.78 | 3.958 ± 0.04 | 2.017 ± 0.02
x2 = 0.8878 | 5.906 ± 0.059 | 2.623 ± 0.026

CN1CCCC1=O + CN(C)C=O
viscosity [mPa·s], 101 kPa
Conditions | x2 = 0.1003 | x2 = 0.2001 | x2 = 0.2997 | x2 = 0.4 | x2 = 0.5007 | x2 = 0.595 | x2 = 0.7 | x2 = 0.8 | x2 = 0.9003
303.15 K | 1.417 ± 0.018 | 1.328 ± 0.017 | 1.249 ± 0.016 | 1.17 ± 0.015 | 1.085 ± 0.014 | 1.018 ± 0.013 | 0.943 ± 0.013 | 0.872 ± 0.012 | 0.809 ± 0.011
313.15 K | 1.231 ± 0.015 | 1.152 ± 0.015 | 1.085 ± 0.014 | 1.02 ± 0.013 | 0.948 ± 0.013 | 0.891 ± 0.012 | 0.832 ± 0.012 | 0.775 ± 0.011 | 0.721 ± 0.011
323.15 K | 1.097 ± 0.014 | 1.024 ± 0.013 | 0.967 ± 0.013 | 0.908 ± 0.012 | 0.846 ± 0.012 | 0.794 ± 0.011 | 0.742 ± 0.011 | 0.692 ± 0.01 | 0.646 ± 0.01

C1CCCC1 + C1CCCCC1
303.15 K, 101 kPa
Conditions | viscosity [mPa·s]
x1 = 0.1022 | 0.7604 ± 0.0049
x1 = 0.2029 | 0.6988 ± 0.0046
x1 = 0.2998 | 0.6457 ± 0.0044
x1 = 0.3944 | 0.599 ± 0.0042
x1 = 0.4949 | 0.5545 ± 0.004
x1 = 0.5917 | 0.5159 ± 0.0038
x1 = 0.6949 | 0.4788 ± 0.0037
x1 = 0.7843 | 0.4494 ± 0.0036
x1 = 0.8966 | 0.4147 ± 0.0034
